#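 Interpolation was linear, between the two tested concentrations surrounding the appropriate level; five concentrations were tested over 48 hours in 96-well plates. Here, GI50 denotes the concentration required for 50% inhibition of growth.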 Calls of active or inactive are those of the source. Rule as the data show it: active = GI50 up to about 1.1 µM and inactive = higher.
# Columns and labels:
# Test in all cases: NCI-60 cell line screen, 48 h
# [1] = system: SNB-75
# [2] = system: NCI-H460
# [3] = system: UACC-257
# [4] = system: MOLT-4
# [5] = system: SW-620
# [6] = system: HCC 2998
# [7] = system: KM12
# [8] = system: TK-10
# [9] = system: SN12C
# [10] = system: HCT-15
# [11] = system: DU-145
# [12] = system: SK-OV-3
# [13] = system: SF-268
# [14] = system: OVCAR-5
# [15] = system: HOP-62
# [16] = system: HCT-116
# [17] = system: SF-295
# [18] = system: RXF 393
# [19] = system: NCI-H23
# [20] = system: EKVX
Compound,GI50 [1],GI50 [2],GI50 [3],GI50 [4],GI50 [5],GI50 [6],GI50 [7],GI50 [8],GI50 [9],GI50 [10],GI50 [11],GI50 [12],GI50 [13],GI50 [14],GI50 [15],GI50 [16],GI50 [17],GI50 [18],GI50 [19],GI50 [20]
COC(=O)/C(=C\Nc1cccc(C)n1)S(=O)(=O)c1ccc(C)cc1,71 µM (inactive),61.7 µM (inactive),69.2 µM (inactive),28.6 µM (inactive),27.1 µM (inactive),> 100 µM (inactive),35.5 µM (inactive),96.2 µM (inactive),> 100 µM (inactive),45.3 µM,> 100 µM (inactive),> 100 µM (inactive),96.2 µM (inactive),> 100 µM (inactive),> 100 µM (inactive),52.2 µM (inactive),> 100 µM (inactive),70.8 µM (inactive),40.6 µM (inactive),
CC1CC(=O)N(N(C)C)C2(C#N)C(=O)N=C(N)C12C#N (configuration not stated),> 100 µM (inactive),,> 100 µM (inactive),36.7 µM (inactive),35.4 µM (inactive),> 100 µM (inactive),> 100 µM (inactive),> 100 µM (inactive),> 100 µM (inactive),> 100 µM,> 100 µM (inactive),> 100 µM (inactive),> 100 µM (inactive),> 100 µM (inactive),> 100 µM (inactive),> 100 µM (inactive),> 100 µM (inactive),> 100 µM (inactive),> 100 µM (inactive),> 100 µM (inactive)
Cn1c(S)nc(C(N)=O)c1N,> 100 µM (inactive),> 100 µM (inactive),,> 100 µM (inactive),> 100 µM (inactive),> 100 µM (inactive),> 100 µM (inactive),> 100 µM (inactive),> 100 µM (inactive),> 100 µM,> 100 µM (inactive),> 100 µM (inactive),> 100 µM (inactive),> 100 µM (inactive),> 100 µM (inactive),,> 100 µM (inactive),> 100 µM (inactive),> 100 µM (inactive),> 100 µM (inactive)
Cc1cn(C2CC(OC(c3ccccc3)(c3ccccc3)c3ccccc3)C(COC(c3ccccc3)(c3ccccc3)c3ccccc3)O2)c(=O)[nH]c1=O (configuration not stated),58.7 µM (inactive),57.8 µM (inactive),> 100 µM (inactive),29.4 µM (inactive),90.4 µM (inactive),> 100 µM (inactive),31.3 µM (inactive),42.5 µM (inactive),53.6 µM (inactive),59.2 µM,> 100 µM (inactive),> 100 µM (inactive),99.8 µM (inactive),53.1 µM (inactive),> 100 µM (inactive),17.1 µM (inactive),> 100 µM (inactive),30 µM (inactive),,45.6 µM (inactive)
N#CC(Cc1ccccc1)N(CCC1=CCCCC1)C(c1ccccc1)c1ccccc1 (configuration not stated),> 100 µM (inactive),33.5 µM (inactive),43 µM (inactive),66.8 µM (inactive),38.9 µM (inactive),32 µM (inactive),> 100 µM (inactive),> 100 µM (inactive),,42.9 µM,> 100 µM (inactive),> 100 µM (inactive),> 100 µM (inactive),95.7 µM (inactive),> 100 µM (inactive),15.8 µM (inactive),> 100 µM (inactive),27.9 µM (inactive),60.1 µM (inactive),35.7 µM (inactive)
O=C(O)CCC(=O)OC1N=C(c2ccccc2Cl)c2cc([N+](=O)[O-])ccc2NC1=O (configuration not stated),38.1 µM (inactive),> 100 µM (inactive),> 100 µM (inactive),,26.1 µM (inactive),> 100 µM (inactive),40.7 µM (inactive),86.7 µM (inactive),46.5 µM (inactive),36.7 µM,> 100 µM (inactive),> 100 µM (inactive),67.5 µM (inactive),> 100 µM (inactive),70.6 µM (inactive),20.5 µM (inactive),> 100 µM (inactive),47.3 µM (inactive),> 100 µM (inactive),> 100 µM (inactive)
C[N+]1(C)CC=C(N2CCOCC2)CC1,> 10 µM (inactive),> 10 µM (inactive),> 10 µM (inactive),> 10 µM (inactive),> 10 µM (inactive),> 10 µM (inactive),> 10 µM (inactive),> 10 µM (inactive),> 10 µM (inactive),> 10 µM,> 10 µM (inactive),> 10 µM (inactive),> 10 µM (inactive),,> 10 µM (inactive),> 10 µM (inactive),> 10 µM (inactive),> 10 µM (inactive),> 10 µM (inactive),> 10 µM (inactive)
OCC1OC(c2scc3c(=S)[nH]cnc23)C(O)C1O (configuration not stated),2.32 µM (inactive),8.22 µM (inactive),42.4 µM (inactive),4.25 µM (inactive),6.76 µM (inactive),7.03 µM (inactive),24.5 µM (inactive),5.45 µM (inactive),6.15 µM (inactive),4.1 µM,0.859 µM (active),2.54 µM (inactive),21.2 µM (inactive),26.1 µM (inactive),10.7 µM (inactive),5.3 µM (inactive),29 µM (inactive),11.9 µM (inactive),21 µM (inactive),76.2 µM (inactive)

# Reference: ChEMBL document CHEMBL1201862, “PubChem BioAssay data set” (2004)
